In patent publication US20070232601A1, “Vla-4 Inhibitor” (priority 2004, published 2007):

Columns and labels:
[1] = target: T1, hα4 and β1 integrins (VLA-4) (Homo sapiens, UniProt P05556+P13612); experiment: In vitro evaluation: inhibition of binding of CHO cells expressing hα4 and β1 integrins to Eu3+-hVCAM-1 D1D7-IgG; details: ligand Eu3+-hVCAM-1 D1D7-IgG 2 nM, Ki calculated from IC50
T1 construct: expressed in transfected cells; host or cells: CHO cells
Method in brief: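 CHO cells stably expressing hα4β1 were cultured 2 days, then incubated 1 h at room temperature with Eu3+-hVCAM-1 D1D7-IgG (added as 2 nM solution) and compound in HEPES pH 7.5 with Ca2+, Mg2+ and 4 mM Mn2+, ± 6% human serum albumin. Bound europium was read by time-resolved fluorescence; IC50 was converted to Ki using Scatchard-derived Kd.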

[2] = Dispersibility test in Japanese Pharmacopoeia First and Second Solution; type: physicochemical; details: for Dispersibility in Japanese Pharmacopoeia First Solution: JP1, pH 1.2; for Dispersibility in Japanese Pharmacopoeia Second Solution: JP2, pH 6.8
Protocol: Dispersibility of a test substance in Japanese Pharmacopoeia First Solution (JP1, pH 1.2) and Japanese Pharmacopoeia Second Solution (JP2, pH 6.8) was evaluated.

T1 sequence (P13612 34-1032): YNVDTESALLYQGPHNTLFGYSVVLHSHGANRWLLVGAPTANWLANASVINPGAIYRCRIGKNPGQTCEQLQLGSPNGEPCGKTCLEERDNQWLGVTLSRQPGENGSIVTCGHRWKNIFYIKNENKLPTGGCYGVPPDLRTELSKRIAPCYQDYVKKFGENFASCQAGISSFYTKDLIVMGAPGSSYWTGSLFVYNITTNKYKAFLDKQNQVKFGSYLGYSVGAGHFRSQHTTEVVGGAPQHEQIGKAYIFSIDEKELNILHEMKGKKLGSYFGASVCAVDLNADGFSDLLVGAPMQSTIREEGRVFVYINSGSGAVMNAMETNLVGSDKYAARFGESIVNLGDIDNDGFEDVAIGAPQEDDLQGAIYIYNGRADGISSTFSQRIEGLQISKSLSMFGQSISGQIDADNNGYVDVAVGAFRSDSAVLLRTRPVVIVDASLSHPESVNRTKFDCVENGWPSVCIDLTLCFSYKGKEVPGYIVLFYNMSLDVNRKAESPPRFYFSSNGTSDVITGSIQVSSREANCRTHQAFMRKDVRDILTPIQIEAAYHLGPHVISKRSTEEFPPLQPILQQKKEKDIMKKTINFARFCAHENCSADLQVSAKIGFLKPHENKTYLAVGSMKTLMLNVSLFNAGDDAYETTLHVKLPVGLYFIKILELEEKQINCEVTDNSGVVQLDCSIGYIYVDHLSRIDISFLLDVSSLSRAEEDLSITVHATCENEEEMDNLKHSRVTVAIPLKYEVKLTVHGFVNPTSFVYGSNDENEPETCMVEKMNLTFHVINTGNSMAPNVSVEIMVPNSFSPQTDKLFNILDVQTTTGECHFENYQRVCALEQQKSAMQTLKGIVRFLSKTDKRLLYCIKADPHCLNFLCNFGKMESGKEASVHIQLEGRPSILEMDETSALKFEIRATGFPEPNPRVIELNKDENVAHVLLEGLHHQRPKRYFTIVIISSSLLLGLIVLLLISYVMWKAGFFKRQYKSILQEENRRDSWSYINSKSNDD
T1 sequence (P05556 21-798): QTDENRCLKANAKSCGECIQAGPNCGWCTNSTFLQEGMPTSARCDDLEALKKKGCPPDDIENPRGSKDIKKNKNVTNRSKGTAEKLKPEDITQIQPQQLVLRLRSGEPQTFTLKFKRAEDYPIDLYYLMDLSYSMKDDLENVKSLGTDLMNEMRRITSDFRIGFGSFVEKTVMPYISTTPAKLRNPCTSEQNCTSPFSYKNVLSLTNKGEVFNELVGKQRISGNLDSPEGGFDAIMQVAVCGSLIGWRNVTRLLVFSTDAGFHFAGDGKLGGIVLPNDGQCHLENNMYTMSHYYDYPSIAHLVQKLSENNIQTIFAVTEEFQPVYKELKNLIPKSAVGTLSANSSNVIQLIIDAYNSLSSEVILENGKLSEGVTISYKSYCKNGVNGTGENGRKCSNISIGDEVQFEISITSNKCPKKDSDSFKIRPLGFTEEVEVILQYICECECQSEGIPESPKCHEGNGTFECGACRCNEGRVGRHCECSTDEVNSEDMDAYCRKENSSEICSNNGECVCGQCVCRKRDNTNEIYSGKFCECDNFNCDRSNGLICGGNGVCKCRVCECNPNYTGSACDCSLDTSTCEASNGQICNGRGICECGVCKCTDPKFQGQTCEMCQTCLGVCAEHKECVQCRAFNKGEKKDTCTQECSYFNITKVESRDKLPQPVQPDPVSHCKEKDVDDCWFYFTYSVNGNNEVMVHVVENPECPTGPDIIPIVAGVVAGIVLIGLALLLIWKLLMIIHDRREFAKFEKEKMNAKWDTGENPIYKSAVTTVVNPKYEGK

CO[C@H]1C[C@@H](c2ncc(CCC(=O)O)s2)N(C(=O)Cc2cc(Cl)c(Nc3nc4ccccc4o3)cc2F)C1 [Example 108]
Ki [1]: 19 nM
Dispersibility in Japanese Pharmacopoeia First Solution [2]: 730 µg/mL
Dispersibility in Japanese Pharmacopoeia Second Solution [2]: 730 µg/mL

O=C(O)CCc1cnc([C@@H]2C[C@H](N3CCC(F)(F)CC3)CN2C(=O)Cc2cc(Cl)c(NC(=O)c3coc4ccccc34)cc2F)s1 [Example 77, 3-[2-[1-[4-(3-Benzo[b]furanylcarbonylamino)-5-chloro-2-fluorophenylacetyl]-(4S)-[1-(4,4-difluoro)piperidinyl]-(2S)-pyrrolidinyl]-5-thiazolyl]propionic acid]
Ki [1]: 0.72 nM
Dispersibility in Japanese Pharmacopoeia First Solution [2]: 430 µg/mL
Dispersibility in Japanese Pharmacopoeia Second Solution [2]: 380 µg/mL

Cn1cc(C(=O)Nc2cc(F)c(CC(=O)N3C[C@@H](N4CCN(CC(F)(F)F)CC4)C[C@H]3c3ncc(CCC(=O)O)s3)cc2Cl)c2ccccc21 [Example 79, 3-[2-[1-[5-Chloro-2-fluoro-4-(1-methyl-3-indolylcarbonylamino)phenylacetyl]-(4S)-[1-(4-(2,2,2-trifluoro)ethyl)piperazinyl]-(2S)-pyrrolidinyl]-5-thiazolyl]propionic acid]
Ki [1]: 1.5 nM
Dispersibility in Japanese Pharmacopoeia First Solution [2]: 250 µg/mL
Dispersibility in Japanese Pharmacopoeia Second Solution [2]: 670 µg/mL

O=C(O)CCc1cnc([C@@H]2C[C@H](N3CCN(CC(F)(F)F)CC3)CN2C(=O)Cc2cc(Cl)c(NC(=O)c3coc4ccccc34)cc2Cl)s1 [Example 84]
Ki [1]: 1.5 nM
Dispersibility in Japanese Pharmacopoeia First Solution [2]: 280 µg/mL
Dispersibility in Japanese Pharmacopoeia Second Solution [2]: 760 µg/mL

COC1CN([C@H]2C[C@@H](c3ncc(CCC(=O)O)s3)N(C(=O)Cc3cc(Cl)c(NC(=O)c4csc5ccccc45)cc3Cl)C2)C1 [Example 66]
Ki [1]: 0.84 nM
Dispersibility in Japanese Pharmacopoeia First Solution [2]: 1000 µg/mL
Dispersibility in Japanese Pharmacopoeia Second Solution [2]: 1000 µg/mL

O=C(O)CCc1cnc([C@@H]2C[C@H](N3CCC(F)(F)CC3)CN2C(=O)Cc2cc(Cl)c(NC(=O)c3csc4ccccc34)cc2Cl)s1 [Example 76]
Ki [1]: 0.79 nM
Dispersibility in Japanese Pharmacopoeia First Solution [2]: 110 µg/mL
Dispersibility in Japanese Pharmacopoeia Second Solution [2]: 83 µg/mL

C[C@@H]1CN([C@H]2C[C@@H](c3ncc(CCC(=O)O)s3)N(C(=O)Cc3cc(Cl)c(NC(=O)c4cn(C)c5ccccc45)cc3F)C2)C[C@H](C)O1 [Example 85, 3-[2-[1-[5-Chloro-2-fluoro-4-(1-methyl-3-indolylcarbonylamino)phenylacetyl]-(4S)-[4-(cis-2,6-dimethyl)morpholinyl]-(2S)-pyrrolidinyl]-5-thiazolyl]propionic acid]
Ki [1]: 1 nM
Dispersibility in Japanese Pharmacopoeia First Solution [2]: 1200 µg/mL
Dispersibility in Japanese Pharmacopoeia Second Solution [2]: 1300 µg/mL

O=C(O)CCc1cnc([C@@H]2C[C@H](N3CCCCC3)CN2C(=O)Cc2cc(Cl)c(NC(=O)c3csc4ccccc34)cc2F)s1 [Example 47, 3-[2-[1-[4-[(3-Benzo[b]thienylcarbonyl)amino]-5-chloro-2-fluorophenylacetyl]-(4S)-(1-piperidinyl)-(2S)-pyrrolidinyl]-5-thiazolyl]propionic acid]
Ki [1]: 0.93 nM
Dispersibility in Japanese Pharmacopoeia First Solution [2]: >2000 µg/mL
Dispersibility in Japanese Pharmacopoeia Second Solution [2]: 510 µg/mL

Cn1cc(C(=O)Nc2cc(Cl)c(CC(=O)N3C[C@@H](N4CCC(F)(F)CC4)C[C@H]3c3ncc(CCC(=O)O)s3)cc2Cl)c2ccccc21 [Example 74, 3-[2-[1-[2,5-Dichloro-4-(1-methyl-3-indolylcarbonylamino)phenylacetyl]-(4S)-[1-(4,4-difluoro)piperidinyl]-(2S)-pyrrolidinyl]-5-thiazolyl]propionic acid]
Ki [1]: 1.2 nM
Dispersibility in Japanese Pharmacopoeia First Solution [2]: 130 µg/mL
Dispersibility in Japanese Pharmacopoeia Second Solution [2]: 150 µg/mL

COC1CN([C@H]2C[C@@H](c3ncc(CCC(=O)O)s3)N(C(=O)Cc3cc(Cl)c(NC(=O)c4csc5ccccc45)cc3F)C2)C1 [Example 65, 3-[2-[1-[4-(3-Benzo[b]thiophenylcarbonylamino)-5-chloro-2-fluorophenylacetyl]-(4S)-[1-(3-methoxy)azetidinyl]-(2S)-pyrrolidinyl]-5-thiazolyl]propionic acid]
Ki [1]: 0.93 nM
Dispersibility in Japanese Pharmacopoeia First Solution [2]: 1000 µg/mL
Dispersibility in Japanese Pharmacopoeia Second Solution [2]: 1000 µg/mL

O=C(O)CCc1cnc([C@@H]2C[C@H](N3CCN(CC(F)(F)F)CC3)CN2C(=O)Cc2cc(Cl)c(NC(=O)c3coc4ccccc34)cc2F)s1 [Example 83]
Ki [1]: 1.6 nM
Dispersibility in Japanese Pharmacopoeia First Solution [2]: 540 µg/mL
Dispersibility in Japanese Pharmacopoeia Second Solution [2]: 1000 µg/mL

COC1CN([C@H]2C[C@@H](c3ncc(CCC(=O)O)s3)N(C(=O)Cc3cc(Cl)c(NC(=O)c4coc5ccccc45)cc3Cl)C2)C1 [Example 68, 3-[2-[[1-4-(3-Benzo[b]furanylcarbonylamino)-2,5-dichlorophenylacetyl]-(4S)-[1-(3-methoxy)azetidinyl]-(2S)-pyrrolidinyl]-5-thiazolyl]propionic acid]
Ki [1]: 0.73 nM
Dispersibility in Japanese Pharmacopoeia First Solution [2]: 1000 µg/mL
Dispersibility in Japanese Pharmacopoeia Second Solution [2]: 1000 µg/mL

CCOC1CN([C@H]2C[C@@H](c3ncc(CCC(=O)O)s3)N(C(=O)Cc3cc(Cl)c(NC(=O)c4csc5ccccc45)cc3Cl)C2)C1 [Example 72, 3-[2-[1-[4-(3-Benzo[b]thiophenylcarbonylamino)-2,5-dichlorophenylacetyl]-(4S)-1-(3-ethoxy)azetidinyl-(2S)-pyrrolidinyl]-5-thiazolyl]propionic acid]
Ki [1]: 0.68 nM
Dispersibility in Japanese Pharmacopoeia First Solution [2]: 960 µg/mL
Dispersibility in Japanese Pharmacopoeia Second Solution [2]: 960 µg/mL

Cn1cc(C(=O)Nc2cc(Cl)c(CC(=O)N3C[C@@H](N4CCN(CC(F)(F)F)CC4)C[C@H]3c3ncc(CCC(=O)O)s3)cc2Cl)c2ccccc21 [Example 80, 3-[2-[1-[2,5-Dichloro-4-(1-methyl-3-indolylcarbonylamino)phenylacetyl]-(4S)-[1-(4-(2,2,2-trifluoro)ethyl)piperazinyl]-(2S)-pyrrolidinyl]-5-thiazolyl]propionic acid]
Ki [1]: 2 nM
Dispersibility in Japanese Pharmacopoeia First Solution [2]: 110 µg/mL
Dispersibility in Japanese Pharmacopoeia Second Solution [2]: 730 µg/mL

CO[C@H]1C[C@@H](c2ncc(CCC(=O)O)s2)N(C(=O)Cc2ccc(Nc3nc4c(Cl)cccc4s3)c(Cl)c2)C1 [Example 114, 3-[2-[1-[4-(4-Chloro-2-benzothiazolyl)amino-3-chlorophenyl]acetyl-(4S)-methoxy-(2S)-pyrrolidinyl]-5-thiazolyl]propionic acid]
Ki [1]: 6.9 nM

CC(C)O[C@H]1C[C@@H](c2ncc(CCC(=O)O)s2)N(C(=O)Cc2cc(Cl)c(NC(=O)c3cn(C)c4ccccc34)cc2F)C1 [Example 35, 3-[2-[1-[5-Chloro-2-fluoro-4-(1-methyl-3-indolylcarbonyl)aminophenylacetyl]-(4S)-isopropoxy-(2S)-pyrrolidinyl]-5-thiazolyl]propionic acid]
Ki [1]: 3 nM

O=C(O)CCc1cnc([C@@H]2C[C@H](OC3CCC3)CN2C(=O)Cc2cc(Cl)c(NC(=O)c3csc4ccccc34)cc2F)s1 [Example 41]
Ki [1]: 2.2 nM

CCO[C@H]1CCN(C(=O)Cc2cc(Cl)c(NC(=O)c3cn(C)c4ccccc34)cc2F)[C@@H]1c1ncc(CCC(=O)O)s1 [Example 91, 3-[2-[1-[[5-Chloro-2-fluoro-4-(1-methyl-3-indolylcarbonylamino)phenyl]acetyl]-(3S)-ethoxy-(2S)-pyrrolidinyl]-5-thiazolyl]propionic acid]
Ki [1]: 4.1 nM

O=C(O)CCc1cnc([C@@H]2[C@@H](O)CCN2C(=O)Cc2ccc(Nc3nc4ccccc4o3)c(Cl)c2)s1 [Example 116, 3-[2-[1-[4-(2-Benzoxazolyl)amino-3-chlorophenyl]acetyl-(3S)-hydroxy-(2S)-pyrrolidinyl]-5-thiazolyl]propionic acid]
Ki [1]: 40 nM

CO[C@H]1C[C@@H](c2ncc(CCC(=O)O)s2)N(C(=O)Cc2ccc3nc(Nc4cc(F)ccc4C)oc3c2F)C1 [Example 8]
Ki [1]: 0.34 nM

CON(C)[C@H]1C[C@@H](c2ncc(CCC(=O)O)s2)N(C(=O)Cc2cc(Cl)c(NC(=O)c3csc4ccccc34)cc2Cl)C1 [Example 130, 3-[2-[1-[4-(3-Benzo[b]thiophenylcarbonylamino)-2,5-dichlorophenylacetyl]-(4S)—N,O-dimethylhydroxylamino-(2S)-pyrrolidinyl]-5-thiazolyl]propionic acid]
Ki [1]: 3.5 nM

CO[C@H]1C[C@@H](c2cc(CCC(=O)O)on2)N(C(=O)Cc2cc(Cl)c(NC(=O)c3csc4ccccc34)cc2Cl)C1 [Example 32, 3-[3-[1-[[4-[(3-Benzo[b]thienylcarbonyl)amino]-2,5-dichlorophenyl]acetyl]-(4S)-methoxy-(2S)-pyrrolidinyl]-5-isoxazolyl]propionic acid]
Ki [1]: 2.1 nM
